In brackets after ≈: the same amount, converted by molar mass.
Experiments:
Type in all cases: functional
[1] = system: Puccinia triticina; assay: Antifungal activity against Puccinia triticina infected 2 weeks old wheat plant assessed as reduction of diseased leaf area treated 1 day before infection measured after 11 days
[2] = system: Zymoseptoria tritici; assay: Antifungal activity against Zymoseptoria tritici infected 2 weeks old wheat plant assessed as reduction of diseased leaf area treated 1 day before infection measured after 16 to 18 days
[3] = system: Pyricularia grisea; assay: Antifungal activity against Magnaporthe grisea infected 3 weeks old rice plant assessed as reduction of diseased leaf area treated 2 days before infection measured after 6 days

Row | SMILES | EC80 [1] | EC80 [2] | EC80 [3]
1 | COC(=O)[C@@H](Nc1c(-c2c(F)cc(F)cc2F)c(F)nc2nccnc12)C(C)C | < 6 µg/mL | 7 µg/mL (≈ 17.1 µM) | 57 µg/mL (≈ 140 µM)
2 | C=CCOC(=O)[C@@H](Nc1c(-c2c(F)cc(F)cc2F)c(F)nc2nccnc12)C(C)C | 31 µg/mL (≈ 71.4 µM) | 21 µg/mL (≈ 48.3 µM) | 110 µg/mL (≈ 253 µM)
3 | CC(C)[C@@H](C)Nc1c(-c2c(F)cc(F)cc2F)c(F)nc2nccnc12 | < 6 µg/mL | < 2 µg/mL | 11 µg/mL (≈ 30.2 µM)
4 | CC(C)[C@@H](C)Nc1c(-c2c(F)cc(F)cc2F)c(Cl)nc2nccnc12 | 77 µg/mL (≈ 202 µM) | 47 µg/mL (≈ 123 µM) | > 200 µg/mL
5 | COc1nc2nccnc2c(N[C@H](C)C(C)C)c1-c1c(F)cc(F)cc1F | 129 µg/mL (≈ 343 µM) | 32 µg/mL (≈ 85 µM) | 100 µg/mL (≈ 266 µM)
6 | CC(C)CNc1c(-c2cccc(F)c2F)c(F)nc2nccnc12 | 157 µg/mL (≈ 472 µM) | 74 µg/mL (≈ 223 µM) | > 200 µg/mL
7 | CC(C)CNc1c(-c2cc(F)ccc2F)c(F)nc2nccnc12 | 118 µg/mL (≈ 355 µM) | 80 µg/mL (≈ 241 µM) | > 200 µg/mL
8 | COc1nc2nccnc2c(NCC(C)C)c1-c1c(F)cc(F)cc1F | 35 µg/mL (≈ 96.6 µM) | 50 µg/mL (≈ 138 µM) | 42 µg/mL (≈ 116 µM)
9 | COc1nc2nccnc2c(NCC(C)C)c1-c1c(F)cccc1Cl | 134 µg/mL (≈ 371 µM) | > 200 µg/mL | 110 µg/mL (≈ 305 µM)
10 | COc1nc2nccnc2c(NCC(C)C)c1-c1ncc(Cl)cc1F | > 200 µg/mL | 10 µg/mL (≈ 27.6 µM) | 29 µg/mL (≈ 80.2 µM)
11 | COc1nc2nccnc2c(N[C@H](C)C(C)C)c1-c1ncc(Cl)cc1Cl | 26 µg/mL (≈ 66.3 µM) | < 6 µg/mL | 15 µg/mL (≈ 38.2 µM)
12 | COc1nc2nccnc2c(NCC(C)C)c1C#Cc1ccccc1 | > 200 µg/mL | 67 µg/mL (≈ 202 µM) | > 200 µg/mL
13 | Fc1cc(F)c(-c2c(F)nc3nccnc3c2NCC(F)(F)F)c(F)c1 | 20 µg/mL (≈ 53.2 µM) | 16 µg/mL (≈ 42.5 µM) | 11 µg/mL (≈ 29.2 µM)
14 | C[C@H](Nc1c(-c2c(F)cc(F)cc2F)c(F)nc2nccnc12)C(F)(F)F | 39 µg/mL (≈ 99.9 µM) | 5 µg/mL (≈ 12.8 µM) | 35 µg/mL (≈ 89.7 µM)
15 | CCC(Nc1c(-c2c(F)cc(F)cc2F)c(F)nc2nccnc12)C(F)(F)F (configuration not stated) | 10 µg/mL (≈ 24.7 µM) | < 2 µg/mL | 10 µg/mL (≈ 24.7 µM)
16 | Fc1cc(F)c(-c2c(F)nc3nccnc3c2NC(C2CC2)C(F)(F)F)c(F)c1 (configuration not stated) | 16 µg/mL (≈ 38.4 µM) | < 6 µg/mL | 104 µg/mL (≈ 250 µM)
17 | CCC(C)Nc1c(-c2c(F)cc(F)cc2F)c(F)nc2nccnc12 (configuration not stated) | 56 µg/mL (≈ 160 µM) | 26 µg/mL (≈ 74.2 µM) | 9 µg/mL (≈ 25.7 µM)
18 | CC(C)(C)Nc1c(-c2c(F)cc(F)cc2F)c(F)nc2nccnc12 | > 200 µg/mL | 19 µg/mL (≈ 54.2 µM) | 35 µg/mL (≈ 99.9 µM)
19 | CC(C)C(C)Nc1c(-c2c(F)cc(F)cc2F)c(F)nc2nccnc12 (configuration not stated) | < 20 µg/mL | 15 µg/mL (≈ 41.2 µM) | 26 µg/mL (≈ 71.4 µM)
